Experimental data published in ChEMBL document CHEMBL3580623, “Minor Structural Change to Tertiary Sulfonamide RORc Ligands Led to Opposite Mechanisms of Action” (ACS Med Chem Lett, 2015).

How the values were obtained:
[1] = target: T1, Nuclear receptor ROR-gamma (Homo sapiens, UniProt P51449); format: functional
T1 sequence (P51449 whole entry): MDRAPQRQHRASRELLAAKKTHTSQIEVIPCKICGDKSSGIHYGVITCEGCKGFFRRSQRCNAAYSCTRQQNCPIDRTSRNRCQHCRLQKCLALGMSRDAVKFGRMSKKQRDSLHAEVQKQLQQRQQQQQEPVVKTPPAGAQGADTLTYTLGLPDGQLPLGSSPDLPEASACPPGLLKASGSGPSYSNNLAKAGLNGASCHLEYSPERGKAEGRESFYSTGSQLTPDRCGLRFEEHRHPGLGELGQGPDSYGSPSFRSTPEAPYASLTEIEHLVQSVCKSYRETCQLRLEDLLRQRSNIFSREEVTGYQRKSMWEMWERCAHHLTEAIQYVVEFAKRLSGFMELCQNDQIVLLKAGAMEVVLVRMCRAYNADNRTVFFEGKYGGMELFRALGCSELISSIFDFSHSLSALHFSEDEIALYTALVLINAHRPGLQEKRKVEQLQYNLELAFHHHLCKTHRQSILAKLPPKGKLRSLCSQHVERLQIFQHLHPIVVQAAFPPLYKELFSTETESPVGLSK

PBMC [2] = assay: Induction of IL17 production in human PBMC cells after 48 hrs by sandwich ELISA method relative to control; format: functional
PBMC [3] = assay: Cytotoxicity against human PBMC assessed as effect on cell physiology after 48 hrs by CellTiter-Glo assay; format: cell-based
PBMC [4] = assay: Induction of IL17 production in human PBMC cells after 48 hrs by sandwich ELISA method; format: functional, cell-based
PBMC [5] = assay: Effect on IFNgamma production in human PBMC cells after 48 hrs by sandwich ELISA method; format: functional, cell-based
Bile acid receptor = target: T2, Bile acid receptor (Homo sapiens, UniProt Q96RI1); assay: Antagonist activity at GAL4-fused human FXR expressed in HEK293T cells assessed as inhibition of agonist-induced transcriptional activity after 20 hrs by dual-glo luciferase reporter gene assay
T2 sequence (Q96RI1 whole entry): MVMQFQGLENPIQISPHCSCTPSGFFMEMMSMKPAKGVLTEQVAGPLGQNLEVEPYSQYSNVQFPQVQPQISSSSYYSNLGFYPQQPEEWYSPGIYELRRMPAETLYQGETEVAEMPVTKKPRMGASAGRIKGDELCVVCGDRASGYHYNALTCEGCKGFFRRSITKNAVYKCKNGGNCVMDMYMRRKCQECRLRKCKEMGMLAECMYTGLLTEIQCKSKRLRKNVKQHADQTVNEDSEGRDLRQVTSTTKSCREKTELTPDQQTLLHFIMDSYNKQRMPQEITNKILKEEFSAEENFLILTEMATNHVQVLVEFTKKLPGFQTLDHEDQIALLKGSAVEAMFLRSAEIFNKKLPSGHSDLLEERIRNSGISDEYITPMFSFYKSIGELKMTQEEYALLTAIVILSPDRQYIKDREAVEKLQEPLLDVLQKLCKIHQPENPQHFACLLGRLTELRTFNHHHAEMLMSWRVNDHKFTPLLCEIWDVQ

[6] = target: T1, Nuclear receptor ROR-gamma; format: functional; remark: listed apart in the source
[7] = target: T3, Nuclear receptor subfamily 1 group I member 2 (Homo sapiens, UniProt O75469); assay: Agonist activity at GAL4-fused human PXR expressed in HEK293T cells assessed as activation of basal transcriptional activity after 20 hrs by dual-glo luciferase reporter gene assay; format: cell-based; conditions: hek-293t
T3 sequence (O75469 whole entry): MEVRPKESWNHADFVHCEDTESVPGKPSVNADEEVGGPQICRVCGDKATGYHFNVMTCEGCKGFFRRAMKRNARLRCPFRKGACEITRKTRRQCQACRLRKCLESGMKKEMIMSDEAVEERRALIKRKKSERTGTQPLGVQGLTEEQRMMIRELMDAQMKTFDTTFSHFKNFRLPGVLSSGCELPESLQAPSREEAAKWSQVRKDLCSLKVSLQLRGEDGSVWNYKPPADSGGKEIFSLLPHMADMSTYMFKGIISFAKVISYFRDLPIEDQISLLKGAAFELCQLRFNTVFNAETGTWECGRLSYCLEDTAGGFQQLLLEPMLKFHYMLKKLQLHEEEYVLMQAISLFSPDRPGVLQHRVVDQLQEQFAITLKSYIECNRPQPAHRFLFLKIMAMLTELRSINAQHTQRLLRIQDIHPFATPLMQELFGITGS

[8] = target: T1, Nuclear receptor ROR-gamma; assay: Inverse agonist activity at GAL4-fused human RORc expressed in HEK293T cells assessed as suppression of basal transcriptional activity after 20 hrs by dual-glo luciferase reporter gene assay; format: functional, cell-based, HEK-293T
PBMC [9] = assay: Inhibition of IL17 production in human PBMC cells after 48 hrs by sandwich ELISA method relative to control; format: functional
[10] = target: T4, Nuclear receptor ROR-beta (Homo sapiens, UniProt Q92753); assay: Inverse agonist activity at GAL4-fused human RORb expressed in HEK293T cells assessed as suppression of basal transcriptional activity after 20 hrs by dual-glo luciferase reporter gene assay; format: cell-based, HEK-293T
T4 sequence (Q92753 whole entry): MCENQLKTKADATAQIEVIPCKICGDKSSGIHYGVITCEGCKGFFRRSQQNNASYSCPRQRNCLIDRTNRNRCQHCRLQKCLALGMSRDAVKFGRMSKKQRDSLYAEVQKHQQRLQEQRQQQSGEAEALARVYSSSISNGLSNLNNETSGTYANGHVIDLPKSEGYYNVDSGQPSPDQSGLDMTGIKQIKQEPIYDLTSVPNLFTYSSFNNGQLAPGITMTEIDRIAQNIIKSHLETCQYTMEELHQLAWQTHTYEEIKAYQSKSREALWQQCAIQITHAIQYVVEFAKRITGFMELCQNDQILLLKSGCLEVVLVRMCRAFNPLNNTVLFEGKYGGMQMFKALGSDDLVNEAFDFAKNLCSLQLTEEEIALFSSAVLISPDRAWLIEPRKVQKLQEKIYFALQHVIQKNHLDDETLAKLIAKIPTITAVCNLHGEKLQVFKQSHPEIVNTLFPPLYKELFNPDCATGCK

PBMC [11] = assay: Inhibition of IL17 production in human PBMC cells after 48 hrs by sandwich ELISA method; format: functional, cell-based
[12] = target: T5, Oxysterols receptor LXR-alpha (Homo sapiens, UniProt Q13133); assay: Antagonist activity at GAL4-fused human LXRalpha expressed in HEK293T cells assessed as inhibition of agonist-induced transcriptional activity after 20 hrs by dual-glo luciferase reporter gene assay
T5 sequence (Q13133 whole entry): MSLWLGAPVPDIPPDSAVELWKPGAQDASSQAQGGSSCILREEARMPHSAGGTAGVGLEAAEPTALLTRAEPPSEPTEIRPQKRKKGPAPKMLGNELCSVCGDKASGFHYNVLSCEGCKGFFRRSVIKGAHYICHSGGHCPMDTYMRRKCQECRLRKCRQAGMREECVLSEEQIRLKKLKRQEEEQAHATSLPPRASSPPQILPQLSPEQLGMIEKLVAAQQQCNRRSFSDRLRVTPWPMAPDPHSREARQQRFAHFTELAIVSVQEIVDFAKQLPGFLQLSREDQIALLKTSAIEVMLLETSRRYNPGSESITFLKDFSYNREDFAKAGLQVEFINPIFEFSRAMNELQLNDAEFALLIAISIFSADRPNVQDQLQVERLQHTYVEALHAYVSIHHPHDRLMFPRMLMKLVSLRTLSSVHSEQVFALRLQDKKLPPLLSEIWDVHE

[13] = target: T1, Nuclear receptor ROR-gamma
Description: Displacement of [3H2]-25-hydroxycholesterol from N-terminal 6xHis-tagged human RORc ligand binding domain (241 to 486) expressed in bacterial expression system after 3 hrs by scintillation counting analysis

Compound: COc1cccc(S(=O)(=O)N(Cc2ccc(N3CCN(C(C)=O)CC3)cc2F)C2CCC2)c1
- EC50 [1]: 26 nM

Compound: CC(=O)N1CCN(c2ccc(CN(C3CCC3)S(=O)(=O)c3cc(F)cc(F)c3)c(F)c2)CC1
- EC50 [1]: 14 nM

Compound: CC(=O)N1CCN(c2ccc(CN(C3CCC3)S(=O)(=O)c3ccccc3)c(F)c2)CC1
- Efficacy (PBMC [2]): 77%
- EC50 (PBMC [3]): > 20 µM
- EC50 (PBMC [4]): 780 nM
- EC50 (PBMC [5]): > 10 µM
- EC50 [1]: 69 nM

Compound: CC(=O)N1CCN(c2ccc(CN(C3CCC3)S(=O)(=O)Cc3ccccc3F)c(F)c2)CC1
- EC50 (Bile acid receptor): 6.1 µM
- EC50 [6]: 3 nM
- Activity [7]: Not Active
- EC50 [8]: 15 nM
- Efficacy (PBMC [9]): -72%
- EC50 (PBMC [3]): > 20 µM
- EC50 [10]: 2700 nM
- EC50 (PBMC [11]): 320 nM
- EC50 (PBMC [5]): > 10 µM
- EC50 [12]: 9.2 µM

Compound: CC(=O)N1CCN(c2ccc(CN(C3CCC3)S(=O)(=O)Cc3ccccc3Cl)c(F)c2)CC1
- EC50 [6]: 4 nM

Compound: CC(=O)N1CCN(c2ccc(CN(C3CCC3)S(=O)(=O)c3ccccc3Cl)c(F)c2)CC1
- EC50 [1]: 47 nM

Compound: CC(=O)N1CCN(c2ccc(CN(C3CCC3)S(=O)(=O)c3ccc(F)cc3)c(F)c2)CC1
- EC50 [6]: > 10000 nM

Compound: CC(=O)N1CCN(c2ccc(CN(C3CCC3)S(=O)(=O)c3cccc(Cl)c3)c(F)c2)CC1
- EC50 [1]: 50 nM

Compound: CC(=O)N1CCN(c2ccc(CN(C3CCC3)S(=O)(=O)Cc3cccc(Cl)c3)c(F)c2)CC1
- EC50 [6]: 9 nM

Compound: CC(=O)N1CCN(c2ccc(CN(C3CCC3)S(=O)(=O)c3ccc(C(F)(F)F)cc3)c(F)c2)CC1
- EC50 [6]: 300 nM

Compound: CC(=O)N1CCN(c2ccc(CN(C3CCC3)S(=O)(=O)c3ccccc3F)c(F)c2)CC1
- Efficacy (PBMC [2]): 71%
- EC50 (PBMC [3]): > 20 µM
- EC50 (PBMC [4]): 800 nM
- EC50 (PBMC [5]): > 10 µM
- EC50 [1]: 63 nM

Compound: COc1ccc(S(=O)(=O)N(Cc2ccc(N3CCN(C(C)=O)CC3)cc2F)C2CCC2)cc1
- EC50 [6]: 3300 nM

Compound: CC(=O)N1CCN(c2ccc(CN(C3CCC3)S(=O)(=O)c3ccc(Cl)cc3Cl)c(F)c2)CC1
- EC50 [6]: 220 nM

Compound: CC(=O)N1CCN(c2ccc(CN(C3CCC3)S(=O)(=O)Cc3cc(Cl)cc(Cl)c3)c(F)c2)CC1
- EC50 [6]: 40 nM

Compound: CC(=O)N1CCN(c2ccc(CN(C3CCC3)S(=O)(=O)Cc3ccc(Cl)cc3)c(F)c2)CC1
- EC50 [6]: 33 nM
- IC50 [13]: 37 nM

Compound: CC(=O)N1CCN(c2ccc(CN(C3CCC3)S(=O)(=O)Cc3cccc(F)c3)c(F)c2)CC1
- EC50 [6]: 10 nM

Compound: CC(=O)N1CCN(c2ccc(CN(C3CCC3)S(=O)(=O)c3ccc(Cl)cc3)c(F)c2)CC1
- EC50 [6]: 190 nM

Compound: CC(=O)N1CCN(c2ccc(CN(C3CCC3)S(=O)(=O)c3ccc(C(C)(C)C)cc3)c(F)c2)CC1
- EC50 [6]: 120 nM

Compound: CC(=O)N1CCN(c2ccc(CN(C3CCC3)S(=O)(=O)c3ccc(OC(F)F)cc3)c(F)c2)CC1
- EC50 [6]: 150 nM
- IC50 [13]: 31 nM

Compound: CC(=O)N1CCN(c2ccc(CN(C3CCC3)S(=O)(=O)c3cc(Cl)cc(Cl)c3)c(F)c2)CC1
- EC50 [1]: 6 nM

Compound: CC(=O)N1CCN(c2ccc(CN(C3CCC3)S(=O)(=O)Cc3ccccc3)c(F)c2)CC1
- EC50 [6]: 11 nM
- Efficacy (PBMC [9]): -79%
- EC50 (PBMC [3]): > 20 µM
- EC50 (PBMC [11]): 350 nM
- EC50 (PBMC [5]): > 10 µM

Compound: CC(=O)N1CCN(c2ccc(CN(C3CCC3)S(=O)(=O)CCc3ccccc3)c(F)c2)CC1
- EC50 [6]: 310 nM

Compound: CC(=O)N1CCN(c2ccc(CN(C3CCC3)S(=O)(=O)Cc3ccc(F)cc3)c(F)c2)CC1
- EC50 [6]: 7 nM

Compound: CC(=O)N1CCN(c2ccc(CN(C3CCC3)S(=O)(=O)c3cccc(F)c3)c(F)c2)CC1
- EC50 [1]: 41 nM

Compound: CC(=O)N1CCN(c2ccc(CN(C3CCC3)S(=O)(=O)c3ccc(OC(F)(F)F)cc3)c(F)c2)CC1
- EC50 [6]: 160 nM
